The values below come from patent publication US20100310674A1, “NOVEL COMPOSITION FOR TREATING THE SIDE EFFECTS OF ANTICANCER TREATMENTS” (TROPHOS, priority 2007, published 2010).

For experiment [1], the system named is tactile allodynia induced by vincristine sulphate. In words: Tactile allodynia induced by cumulative doses of vincristine sulphate in the rat (paw withdrawal threshold, Dynamic Plantar Aesthesiometer). To be noted: for anti-allodynic effect on first day of administration: day 10. In kind it is in vivo, rat (WISTAR). The method, then:
The effect of cholest-4-en-3-one oxime on tactile allodynia induced by cumulative doses of vincristine sulphate was evaluated in the rat. Adult male WISTAR rats weighing approximately 250 g were used. Vincristine sulphate was injected by intravenous route at 200 μg/kg on days 1, 4 and 6 (total cumulative dose of 600 μg/kg). The animal's paw withdrawal thresholds to harmless mechanical stimulation were measured in the rats on days 0, 3, 5, 7 and then every day from day 10 to day 14. The cholest-4-en-3-one oxime (10, 30 and 100 mg/kg once daily) was administered by oral route from day 10 to day 14 and the paw withdrawal thresholds were measured 4 hours after administration of the cholest-4-en-3-one oxime. 8 rats were used per tested dose. The mechanical stimulation thresholds at which the animals withdraw their hind paw in response to mechanical stimulations were measured using a Dynamic Plantar Aesthesiometer (Ugo Basile, Italy). Briefly, in a temperature-controlled room (approximately 22° C.) each animal was placed in a transparent cubic box made of Perspex (22×16.5×14 cm) containing a metal mesh floor giving access to the soles of its paws and left for 15 minutes before the test in order for it to acclimatize. A mechanical stimulus was applied to the left hind paw using a stainless filament (0.5 mm in diameter) exerting a force which increases linearly (2.5 g/sec). The force (g) at which the animal withdraws its paw was recorded automatically. Each paw withdrawal threshold was calculated as the average of three consecutive tests carried out at 5-minute intervals by an investigator ignorant of the treatments used on each of the animals. A 50 g limit was imposed in order to prevent tissue damage. A stock solution of cholest-4-en-3-one oxime in corn oil was prepared on the first day of the experiment and administered once daily by oral tube feeding (5 ml/kg). The cholest-4-en-3-one oxime was reduced to a fine powder and mixed with the necessary quantity of excipient in order to obtain concentrations of […], 6 and 20 mg/ml, the mixture is then homogenized by magnetic stirring for at least 10 minutes. Stock solutions were kept at 4° C. between administrations. A statistical analysis was carried out using a two-way ANOVA test followed by Tukey's test in order to compare the effect of the test compound with respect to the excipient.

The subject of experiment [2] is neuropathies induced by paclitaxel. The experiment can be described thus: Hypersensitivity to pain (mechanical allodynia 4 gVFH, mechanical hyperalgesia 15 gVFH) in rat model of neuropathies induced by paclitaxel. It is filed as in vivo, rat (Sprague-Dawley). To be noted: for anti-allodynia (4 gVFH) / anti-hyperalgesia (15 gVFH): AUC D16-D40. The method, then: Adult male Sprague-Dawley rats were used.
Paclitaxel (6 mg/ml in a 50:50 mixture of Cremophor and ethanol) was diluted just before use with a […] sodium chloride solution at a concentration of 2 mg/ml and injected by intraperitoneal route in a volume of 1 ml/kg on days 0, 2, 4 and 6.
Fresh solutions of cholest-4-en-3 one oxime (Sigma) in corn oil were prepared each week at a concentration of 0.6 or 6.0 mg/ml. This solution was given to the animal by oral tube feeding in a volume of 5 ml/kg.
Three groups of 12 animals treated with paclitaxel were formed: • group 1: cholest-4-en-3-one oxime at 3 mg/kg per os, daily for 17 days (day(−1)-day(15), commencing on the day before the first injection of paclitaxel and continuing for 9 days after the last injection of paclitaxel). On the days when the cholest-4-en-3-one oxime and the paclitaxel had to be administered, the cholest-4-en-3-one oxime was given at 9:00 h, and the paclitaxel at 13:00 h; • group 2: as above except that the cholest-4-en-3-one oxime was given at 30 mg/kg; • group 3: as above except that the animals received an identical volume of excipient (corn oil);
The animals were habituated to the test environment for 3 separate days and then 3 sessions per day were organized in order to establish the normal response to a von Frey hairs (VFH) stimulation exerting pressure of 4 g or 15 g (4 gVFH or 15 gVFH). Normal rats rarely withdraw from a stimulation with 4 gVFH; thus, an increase in response post treatment with paclitaxel is a sign of mechanical allodynia. Normal rats withdraw from a stimulation with 15 gVFH 10-20% of the time; thus an increased frequency of response to this stimulus indicates mechanical hyperalgesia.
The animals were placed in cages containing a metal mesh floor giving access to the soles of the animals' paws. Each mechanical stimulus was applied to the middle of the heel of the left hind paw. The presence or absence of withdrawal of the paw was noted. This was repeated 5 times on each hind paw and the animals' responses were summarized as a percentage of responses (5 withdrawals of the paw in response to a stimulation of 15 gVFH corresponded to a score of 50%).
The rats were habituated to the test environment for 3 days. Tests relating to the reference level of sensitivity at 4 g and 15 gVFH were carried out for 3 consecutive days; the average of the last two corresponded to the level of sensitivity before treatment with paclitaxel. The behaviour tests for testing the effects of paclitaxel commenced on day 16 and were repeated on days 19, 22, 25, 28, 31, 35 and 40, by an investigator ignorant of the treatments applied to each of the animals.
The area-under-the-curve values were calculated for each group during the period from D16 to D40 (from the start of the appearance of the pain due to the paclitaxel to the end of the experiment). The AUC values were analyzed with an ANOVA test followed by comparison “in pairs” with the group having received the excipient by Dunnett's t-test.

Experiment [3] has as its system cold allodynia induced by oxaliplatin. In words: Cold allodynia (acetone drop) induced by cumulative doses of oxaliplatin in the rat. It is filed as in vivo, rat (Sprague-Dawley). The protocol: The effect of the cholest-4-en-3-one oxime on cold allodynia induced by cumulative doses of oxaliplatin were evaluated in the rat. Adult male Sprague-Dawley rats weighing approximately 150 g were used. The oxaliplatin was injected by intra-peritoneal route at 3 mg/kg three times a week and for three weeks (total cumulative dose of 27 mg/kg). The paw withdrawal time as well as the amplitude of the animal's response to harmless thermal stimulations using a drop of acetone were measured in the rats before and after treatment by oxaliplatin on days 1 and 18 respectively, and then on each day of treatment with cholest-4-en-3-one oxime, from day 22 to day 25. The cholest-4-en-3-one oxime (1, 10 and 100 mg/kg once daily) was administered by oral route from day 22 to day 25 and the thresholds for withdrawal of the paw were measured 4 hours after administration of the cholest-4-en-3-one oxime. 7 to 9 rats were used per dose tested. For each animal, the reaction times at which the animals withdrew their hind paw following the deposition of the drop of acetone were calculated as the average of six consecutive tests carried out at 5-minute intervals by an investigator ignorant of the treatments applied to each of the animals. A limit of 20 seconds was imposed. The amplitude of the response to the drop of acetone was marked on a scale of 0 to 3: 0 (no response); 1 (rapid withdrawal of the paw); 2 (prolonged withdrawal of the paw); 3 (repeated withdrawal of the paw with licking and/or biting). The score of each of the six tests was totalled. A stock solution of cholest-4-en-3-one oxime in corn oil was prepared on the first day of the experimentation and administered once daily by oral tube feeding (5 ml/kg). The cholest-4-en-3-one oxime was reduced to a fine powder and mixed with the necessary quantity of vehicle in order to obtain concentrations of 0.2, 2 and 20 mg/ml, the mixture is then homogenized by magnetic stirring for at least 10 minutes. Stock solutions were kept at 4° C. between administrations. A statistical analysis was carried out using a two-way ANOVA test followed by Bonferroni's test in order to compare the effect of the test compound with respect to the vehicle.

Setting [4] is: 3 mg/kg per os daily for 17 days.
Where [5] appears, read: 30 mg/kg per os daily for 17 days.

`CC(C)CCC[C@@H](C)[C@H]1CC[C@H]2[C@@H]3CCC4=CC(=NO)CC[C@]4(C)[C@H]3CC[C@]12C` [cholest-4-en-3-one oxime]: the “anti-allodynic effect on first day of administration” value in experiment [1] (oral 10 mg/kg, p=0.086) was “no significant anti-allodynic effect”; in experiment [1] (oral 30 mg/kg, P=0.232) it was “no significant anti-allodynic effect”; in experiment [3] (lower doses (1 and 10 mg/kg oral), day 22), “no significant anti-allodynic effect”. Further, in experiment [1] (oral 10, 30 and 100 mg/kg once daily, days 11 to 14, P<0.05 in all cases), the “effect on allodynia induced by vincristine, daily treatment” value is “significantly alleviates the allodynia”. Moreover, the “effect on allodynia induced by vincristine vs excipient” value in experiment [1] (single oral dose 100 mg/kg, day 10, measured 4 hours after administration, P<0.001) is “significantly alleviates the allodynia”. In experiment [2] (3 mg/kg and 30 mg/kg per os daily day -1 to day 15, AUC D16 to D40, p<0.01), the “development of mechanical allodynia and hyperalgesia” value is “significantly inhibited”. Besides, the “anti-allodynia (4 gVFH)” value stood at 59% in experiment [2] (setting [4]) and 53% in experiment [2] (setting [5]). The “anti-hyperalgesia (15 gVFH)” value came to 45% in experiment [2] (setting [4]) and 40% in experiment [2] (setting [5]). The “anti-allodynic effect after daily treatment” value in experiment [3] (oral 100 mg/kg once daily, days 22 to 25) is “persisted”. Besides, the “effect on cold allodynia induced by oxaliplatin from third day of administration” value in experiment [3] (oral 1 and 10 mg/kg once daily, day 24, P<0.05) is “significantly reduced the cold allodynia”. The “effect on allodynia induced by oxaliplatin vs excipient” value in experiment [3] (single oral dose 100 mg/kg, day 22, P<0.05) was “significantly reduced the allodynia”.
